Earlier results in patent US20150150814A1, “STABLE ORAL PHARMACEUTICAL COMPOSITION OF SOLIFENACIN” (RANBAXY LABORATORIES LIMITED, priority 2013, published 2015).

Details: water at room temperature

solubility in water: freely soluble
SMILES: O=C(O[C@H]1CN2CCC1CC2)N1CCc2ccccc2[C@@H]1c1ccccc1 [Solifenacin succinate, (1S)-(3R)-1-azabicyclo [2.2.2] oct-3-yl3,4-dihydro-1-phenyl-2(1H)iso-quinolinecarboxylate]
